Measured values: US10928381B2, “In vitro methods of monitoring autophagy in a human cell using a photoconvertable fluorescent protein linked biomarker” (The Regents of the University of Michigan, priority 2018, dated 2021)
Entries after “also recorded” stand apart in the source; their conditions may differ.

Tested on: Dendra2-LC3 HEK cells
Assay: Optical pulse labeling: time-dependent decay of photoconverted (red, RFP/TRITC) Dendra2-LC3 as measure of autophagic flux
Format: cell-based, human
Design: key to Hit class in screen of Enzo Autophagy compound library (9H RFP/0H RFP): enhancer: [Sample9H RFP/OH RFP]<[DMSO9H RFP/OH RFP−3SDDMSO]; inhibitor: [Sample9H RFP/OH RFP]>[DMSO9H RFP/OH RFP 3SDDMSO]
Details: for Effect on torin1-induced Dendra2-LC3 degradation: co-treatment with torin1; for Effect on torin1-induced Dendra2-LC3 degradation / Degradation (decay) of photoconverted Dendra2-LC3: red channel; for Dose dependence of effect on Dendra2-LC3 decay: increasing concentrations, RFP and GFP channels; for Degradation (decay) of photoconverted Dendra2-LC3: vs DMSO, Torin1 1 uM, Bafilomycin-A1 10 nM
Method: FIGS. 8A-E. Time dependent decay of Dendra2-LC3 as an assay of autophagic flux. (FIG. 8A) Dendra2-LC3 reporter cells were imaged prior to photoconversion to measure background TRITC intensity. Immediately following photoconversion with a 5 second pulse of […] light, cells were treated with DMSO, 1 uM Torin1, or 10 nM Bafilomycin-A1 and then were subsequently imaged at the indicated time points. Images are psuedocolored to better highlight intensity differences. (FIGS. 8B-E) Time dependent changes in photoconverted Dendra2-LC3 fluorescence in the TRITC (FIGS. 8B, D) and GFP (FIGS. 8C, E) channels. Gray boxes represent the pre and post-photoconversion time points. TRITC intensity values are normalized, setting the background intensity prior to conversion to 0 and the post-conversion value to 1. GFP values are normalized to the pre-conversion intensity. Error bars represent the SEM from three replicate experiments. […] (FIG. 8C) Following photoconversion there is a 40% drop in GFP intensity. As new Dendra2-LC3 is synthesized, GFP levels return to pre-photoconversion levels over the span of 13.5 hours. […] Cells were transfected with 20 nM ATG5 siRNA two days prior to imaging.
FIG. 9A-C. Evaluating the efficacy of known autophagy modulators. (FIG. 9A) An unbiased screen of the Enzo Autophagy compound library identified several known autophagy compounds as hits providing construct validity to the assay. Rapamycin, NVP-BEZ235 and AKT inhibitor X, were among the compounds appropriately identified as enhancers while Bafilomycin registered as an inhibitor. […] Cells were imaged in RFP to measure background fluorescence, then photoconverted with a 4 second DAPI exposure and immediately imaged again to establish the postconversion intensity. Drugs from the Enzo Autophagy library were added at a concentration of 10 uM via a robotic liquid handler. 9 hours later the cells were imaged again in order to assess the efficacy of the drugs. Hits were defined as follows: enhancer: [Sample9H RFP/OH RFP]<[DMSO9H RFP/OH RFP−3SDDMSO], inhibitor: [Sample9H RFP/OH RFP]>[DMSO9H RFP/OH RFP 3SDDMSO]. […] Imaging of the compound library was repeated in GFP. Intensity values are reported 15 hours after drug treatment. (FIG. 9C) The reduction in Dendra2-LC3 half-life observed upon treatment of autophagic flux enhancers is attenuated with partial knockdown of ATG5. Cells were transfected with 20 nM ATG5 siRNA 2 days prior to imaging. Error bars represent SEM from three replicate experiments.
Experiments were conducted during development of embodiments herein to develop a sensitive method—optical pulse labeling (OPL)—that takes advantage of the photoconvertible fluorescent protein Dendra2 for estimations of autophagic flux in cellulo (Refs 14, 34; herein incorporated by reference in their entireties) (FIG. 1b). […] Dendra2 was fused to LC3, a specific marker of autophagosomes and itself an autophagy substrate (Refs. 27, 31; herein incorporated by reference in their entireties). Following photoconversion, the time-dependent reduction in red LC3-Dendra2 (FIG. 1c) is used to calculate protein half-life, representing an estimate of autophagy flux for individual cells (Refs. 14, 34; herein incorporated by reference in their entireties) Furthermore, because LC3 is degraded as autophagosomes mature, the return to steady-state levels of green Dendra2-LC3 after photoconversion (FIG. 1d) reflects activity within the pathway as a whole. The assay is noninvasive, permitting longitudinal analyses of autophagy kinetics in living cells, and amenable to HTS.
For these studies the potent mTOR inhibitor torin1 (Ref. 36; herein incorporated by reference in its entirety) was selected as a positive control for autophagy induction, and the vacuolar ATPase inhibitor bafilomycin-A1 (Ref. 37; herein incorporated by reference in its entirety) as a positive control for autophagy inhibition. In each case, DMSO served as a vehicle (negative) control. […]

Row | SMILES | Hit class in screen of Enzo Autophagy compound library (9H RFP/0H RFP) (10 uM, 9 hours after drug addition) | Effect on torin1-induced Dendra2-LC3 degradation (listed as BafilomycinA1) | Effect on torin1-induced Dendra2-LC3 degradation (listed as bafilomycin-A1) | Dose dependence of effect on Dendra2-LC3 decay | Degradation (decay) of photoconverted Dendra2-LC3 (listed as bafilomycin) | Degradation (decay) of photoconverted Dendra2-LC3 (listed as bafilomycin-A1) | Degradation (decay) of photoconverted Dendra2-LC3
1 | CO/C1=C\C(C)=C\[C@@H](C)[C@@H](O)[C@@H](C)C/C(C)=C/C=C/[C@H](OC)[C@@H]([C@@H](C)[C@@H](O)[C@H](C)[C@@]2(O)C[C@@H](O)[C@H](C)[C@@H](C(C)C)O2)OC1=O [Bafilomycin-A1, bafilomycin-A1] | inhibitor | blocks induction by torin1 | completely blocked the effects of torin1 | similar, tunable response | extends it | slowed its clearance | 
2 | CCC(=O)N1CCN(c2ccc(-n3c(=O)ccc4cnc5ccc(-c6cnc7ccccc7c6)cc5c43)cc2C(F)(F)F)CC1 [Torin1, torin1] |  |  |  | increased in a dose dependent manner |  |  | significantly accelerates Dendra2-LC3 degradation; also recorded: accelerates decay; also recorded: significantly enhanced Dendra2-LC3 degradation
